The record followed here is patent US9624218B2 (Eli Lilly and Company, priority 2014, dated 2017).

The subject of experiment [1] is EGFP-Axin2 fusion protein. The settings on record: read-out: Axin2 Stabilization EC50; HEK293 EGFP-Axin2 cells, 24 hours; Mean ± SEM.
Experiment [2] has as its system Wnt-inducible genes (TCF/LEF luciferase reporter in DLD-1 TOPFlash cells). The settings on record: read-out: Wnt-inducible gene expression inhibition IC50, 24 hours, Mean ± SEM.
A further experiment has as its system A549 cells. Kind of experiment: cells. The settings on record: Homo sapiens, read-out: % Inhibition of Colony Formation.
The next experiment relates to HPAF-II cells. In words: cells. The settings on record: Homo sapiens, read-out: % Inhibition of Colony Formation.
The next experiment relates to Capan-2 cells. In words: cells. The settings on record: Homo sapiens, read-out: % Inhibition of Colony Formation.
Experiment [3] deals with Wnt-inducible genes (TCF/LEF luciferase reporter in DLD-1 TOPFlash cells). Kind of experiment: cells. The settings on record: Homo sapiens, DLD-1, 24 h, read-out: Wnt-inducible gene expression inhibition IC50, DLD-1 TOPFlash cells, 24 hours; Mean ± SEM.
Another experiment relates to Panc 04.03 cells. The settings on record: 11 days.
The test system of experiment [4] is C57BL/6J-Apc^Min/J strain mice. In words: In vivo antitumor activity, intestinal polyps. The settings on record: 25 mg/kg BID, 60 consecutive days, small intestine. An excerpt:
C57BL/6J-Apc^Min/J strain mice carry a truncating mutation at codon 850 of the Apc gene and develop intestinal polyps and colorectal neoplasms at the age of 3-6 months. Truncation in the APC gene leads to activation of the Wnt signaling pathway and elevated levels of β catenin are frequently detected in pre-neoplastic/neoplastic lesions in these mice.
At the end of the treatment period, the animals are sacrificed and the number of polyps in the small intestine is counted under a dissection microscope.

The target in the next experiment is hTNKS1 (Homo sapiens (Human), UniProt O95271). Kind of experiment: hTNKS1 enzyme activity ELISA (poly ADP ribose incorporation into TRF1). The settings on record: Mean ± SEM. The class given is biochemical. For orientation: An ELISA detects its analyte on a solid surface through an enzyme-linked reagent.
hTNKS1, sequence (O95271 whole entry, change not shown): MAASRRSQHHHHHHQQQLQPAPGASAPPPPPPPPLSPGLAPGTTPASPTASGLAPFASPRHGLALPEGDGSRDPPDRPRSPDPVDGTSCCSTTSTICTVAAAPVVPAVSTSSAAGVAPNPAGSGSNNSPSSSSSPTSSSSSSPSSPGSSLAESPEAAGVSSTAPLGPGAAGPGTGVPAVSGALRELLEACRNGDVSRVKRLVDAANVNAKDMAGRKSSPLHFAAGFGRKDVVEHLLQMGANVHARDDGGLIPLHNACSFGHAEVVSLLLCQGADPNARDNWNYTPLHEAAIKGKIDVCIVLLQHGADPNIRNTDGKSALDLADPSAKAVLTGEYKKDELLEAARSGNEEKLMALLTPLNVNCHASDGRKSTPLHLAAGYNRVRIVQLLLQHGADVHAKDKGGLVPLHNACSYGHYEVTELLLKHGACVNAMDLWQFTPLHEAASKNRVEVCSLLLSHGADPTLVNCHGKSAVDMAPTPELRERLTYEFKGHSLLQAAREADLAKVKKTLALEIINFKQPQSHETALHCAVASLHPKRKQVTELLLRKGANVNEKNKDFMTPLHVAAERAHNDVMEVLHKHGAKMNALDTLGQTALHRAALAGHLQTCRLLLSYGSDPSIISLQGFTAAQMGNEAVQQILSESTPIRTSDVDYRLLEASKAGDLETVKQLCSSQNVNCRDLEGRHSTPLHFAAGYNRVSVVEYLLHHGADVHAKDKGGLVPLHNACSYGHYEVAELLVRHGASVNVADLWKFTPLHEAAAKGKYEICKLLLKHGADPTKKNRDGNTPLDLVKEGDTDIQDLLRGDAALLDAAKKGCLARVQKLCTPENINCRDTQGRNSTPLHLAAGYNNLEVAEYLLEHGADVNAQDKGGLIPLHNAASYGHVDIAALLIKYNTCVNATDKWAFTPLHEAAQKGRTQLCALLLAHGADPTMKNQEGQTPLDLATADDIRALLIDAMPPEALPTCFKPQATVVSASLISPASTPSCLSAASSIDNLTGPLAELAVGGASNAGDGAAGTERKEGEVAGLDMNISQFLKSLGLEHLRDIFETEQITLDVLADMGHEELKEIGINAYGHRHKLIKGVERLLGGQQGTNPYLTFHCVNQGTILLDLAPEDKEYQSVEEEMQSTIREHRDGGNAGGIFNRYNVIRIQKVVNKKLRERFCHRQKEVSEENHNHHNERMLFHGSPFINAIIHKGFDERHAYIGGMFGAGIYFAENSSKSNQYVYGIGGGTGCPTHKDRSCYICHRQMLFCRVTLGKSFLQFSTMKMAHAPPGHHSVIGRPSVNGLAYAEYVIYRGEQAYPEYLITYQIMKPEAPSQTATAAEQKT

“And” between values parts separate entries of the source, which are not always exact repeats. Equal entries are not always repeated. Where two headings read alike, the source gives them in different places.

For `CC(c1ncccn1)N1CCN(c2nc3c(c(=O)[nH]2)CCCN3C)CC1` (single isomer, unassigned; isomer 2) [Example 9, 8-Methyl-2-[4-(1-pyrimidin-2-ylethyl)piperazin-1-yl]-3,5,6,7-tetrahydropyrido[2,3-d]pyrimidin-4-one, Isomer 2], the EC50 in experiment [1] was 70.9 nM. The IC50 in [2] amounted to 28.2 nM.
With `CCC(c1ncccn1)N1CCN(c2nc3c(c(=O)[nH]2)CCCN3C)CC1` (single isomer, unassigned; isomer 2) [Example 12, 8-Methyl-2-[4-(1-pyrimidin-2-ylpropyl)piperazin-1-yl]-3,5,6,7-tetrahydropyrido[2,3-d]pyrimidin-4-one, Isomer 2], the EC50 in [1] stood at 122 nM. The IC50 in experiment [2] stood at 19.5 nM.
Take `CN1CCCc2c1nc(N1CCN(Cc3ncccn3)CC1)[nH]c2=O` [Example 1, 8-Methyl-2-[4-(pyrimidin-2-ylmethyl)piperazin-1-yl]-3,5,6,7-tetrahydropyrido[2,3-d]pyrimidin-4-one]: the EC50 in [1] was 65.9 nM. Besides, the inhibition at 0.03 µM is 25.5% in the experiment on A549 cells, 2.44% in the experiment on HPAF-II cells and -20.8% in the experiment with Capan-2 cells. The inhibition at 0.11 µM in the experiment on A549 cells worked out at 46.5%; in the experiment on HPAF-II cells, 40.5%; with Capan-2 cells, 18%. In addition, the inhibition at 0.33 µM in the experiment on A549 cells is 54.2%; in the experiment with HPAF-II cells, 61.6%; in the experiment with Capan-2 cells, 55.9%. Moreover, the inhibition at 1 µM with A549 cells is 74.3%; with HPAF-II cells, 85.2%; with Capan-2 cells it was 63.9%. The inhibition at 3 µM in the experiment with A549 cells came out at 72.1%; with HPAF-II cells, 88.2%; with Capan-2 cells, 70.7%. Besides, the IC50 in experiment [3] amounted to 13.2 nM. Also, the “% Inhibition of Colony Formation” value in the experiment with Panc 04.03 cells (Panc 04.03, 0.03 μM) was −34.35%; in the experiment with Panc 04.03 cells (Panc 04.03, 0.11 μM) it was 51.39%; in the experiment on Panc 04.03 cells (Panc 04.03, 0.33 μM), 92.79%; in the experiment with Panc 04.03 cells (Panc 04.03, 1 μM), 92.51%; in the experiment on Panc 04.03 cells (Panc 04.03, 3 μM) it was 90.03%. Also, the “Average Number of polyps per Animal” value in experiment [4] was “statistically significant lower number of tumors and 4.3 ± 0.70”.
With `CC(c1ncc(F)cn1)N1CCN(c2nc3c(c(=O)[nH]2)CCCN3C)CC1` (stereo not shown) [Example 5], at hTNKS1, half-maximal inhibition (IC50) required 85.2 nM.

In general, EC50 refers to the concentration that produces a half-maximal response. As usually defined, the IC50 is the concentration needed to halve the response being measured. One may read the inhibition as the change of the read-out against control, counted positive when it falls.
